Our source for the Ki, Km and Vmax values is ChEMBL document CHEMBL1123862, “Binding orientation of amphetamine and norfenfluramine analogues in the benzonorbornene and benzobicyclo[3.2.1]octane ring systems at the active site of phenylethanolamine N-methyltransferase (PNMT)” (J Med Chem, 1987).

The target of data set [1] is T1, Phenylethanolamine N-methyltransferase (Bos taurus, UniProt P10938).
T1 sequence (P10938 whole entry): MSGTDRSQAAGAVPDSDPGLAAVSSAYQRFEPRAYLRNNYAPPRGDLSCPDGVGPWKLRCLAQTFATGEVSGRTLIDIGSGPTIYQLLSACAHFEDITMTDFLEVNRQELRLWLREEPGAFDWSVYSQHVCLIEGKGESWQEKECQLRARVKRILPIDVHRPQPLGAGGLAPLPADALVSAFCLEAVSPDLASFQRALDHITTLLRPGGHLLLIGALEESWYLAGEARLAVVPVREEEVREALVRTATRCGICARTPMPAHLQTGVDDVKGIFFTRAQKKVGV
In words: (§1) Inhibition of Phenylethylamine N-Methyltransferase (PNMT) using radiochemical assay.

Compound in data set [2]: N[C@@H]1CC2CC1c1cccc(C(F)(F)F)c12
The data set is described as §1.

Compound in data set [3]: NC1C2CC[C@H]1c1ccccc12
Described as §1.

Compound in data set [4]: N[C@@H]1C2CCC1c1ccc(C(F)(F)F)cc1C2
Described as §1.

Compound in data set [5]: N[C@@H]1CC2CC1c1ccc(C(F)(F)F)cc12
Described as §1.

Compound in data set [6]: N[C@H]1C2CCC1c1cc(C(F)(F)F)ccc12
The description is as §1.

Compound in data set [7]: N[C@@H]1C2CCC1c1cccc(C(F)(F)F)c1C2
Described as §1.

Compound in data set [8]: N[C@@H]1CC2C[C@@H]1c1ccccc12
Described as §1.

What is called Ki is the equilibrium dissociation constant of an inhibitor or competing ligand from its target. In the case of `N[C@H]1C2CCC1c1c(cccc1C(F)(F)F)C2` (some centres not stated), the inhibition constant Ki in data set [1] is 191 µM.
As for `NC1C2CC[C@H]1c1ccccc12` (some centres not stated), the inhibition constant Ki in data set [1] came out at 258 µM.
In data set [1], `N[C@H]1C2CCC1c1ccc(C(F)(F)F)cc1C2` (some centres not stated) had a Ki of 1800 µM.
The same measure, in the same setting: for `N[C@@H]1C2CCC1c1cc(C(F)(F)F)ccc1C2` (some centres not stated) the value was 31.8 µM.
`N[C@H]1C2CCC1c1ccccc1C2` (some centres not stated): the Ki in data set [1] is 8900 µM.
Consider `N[C@@H]1C2CCC1c1c(cccc1C(F)(F)F)C2` (some centres not stated), for which the inhibitory constant (Ki) in data set [1] came to 51.1 µM.
In data set [1], `NC1CCc2ccccc2C1` (configuration not stated) yielded a Ki of 15 µM.
Still for that read-out and setting: for `N[C@@H]1CC2CC1c1cc(C(F)(F)F)ccc12` (some centres not stated) the value was 204 µM; for `N[C@H]1C2CCC1c1c2cccc1C(F)(F)F` (some centres not stated), 12.1 µM.
Still for that read-out and setting: for `N[C@H]1C2CCC1c1cc(C(F)(F)F)ccc1C2` (some centres not stated) the value was 801 µM; for `N[C@@H]1CC2CC1c1c2cccc1C(F)(F)F` (some centres not stated), 350 µM; for `N[C@@H]1C2CCC1c1ccccc1C2` (some centres not stated), 106 µM.
Regarding `N[C@H]1C2CCC1c1cccc(C(F)(F)F)c1C2` (some centres not stated), the inhibition constant Ki in data set [1] was found to be 1430 µM.
Regarding `N[C@@H]1CC2CCC1c1ccccc12` (some centres not stated), the Ki in data set [1] was 1300 µM.

B1: Phenylethanolamine N-methyltransferase (Bos taurus), P10938 (protein)
chain: MSGTDRSQAAGAVPDSDPGLAAVSSAYQRFEPRAYLRNNYAPPRGDLSCPDGVGPWKLRCLAQTFATGEVSGRTLIDIGSGPTIYQLLSACAHFEDITMTDFLEVNRQELRLWLREEPGAFDWSVYSQHVCLIEGKGESWQEKECQLRARVKRILPIDVHRPQPLGAGGLAPLPADALVSAFCLEAVSPDLASFQRALDHITTLLRPGGHLLLIGALEESWYLAGEARLAVVPVREEEVREALVRTATRCGICARTPMPAHLQTGVDDVKGIFFTRAQKKVGV
Broadly, the Km is the concentration of substrate that gives half-maximal velocity. As usually defined, the Vmax is the top rate of the reaction or transport when substrate is in excess. Take B1: the Km in data set [2] worked out at 33 µM; in data set [3], 151 µM; in data set [4], 45.8 µM; in data set [5], 52 µM; in data set [6] it was 14.6 µM; in data set [7], 34.4 µM. The maximum rate (Vmax) in data set [2] is 0.49 nmol/min/mg; in data set [3], 0.17 nmol/min/mg; in data set [4], 0.46 nmol/min/mg; in data set [5], 1.38 nmol/min/mg; in data set [6] it was 0.57 nmol/min/mg; in data set [7], 0.52 nmol/min/mg. Also, in data set [8], the Vmax was 0.04 nmol/min/mg.
